Experimental data from patent publication US6936457B1 (Merck & Co., Inc., priority 1990, dated 2005).
Values joined by “and” are separate entries in the source; they are usually repeats but may differ in a detail not shown here. Equal entries are not always repeated. Where two headings read alike, the source gives them in different places.

How the values were obtained:
PC12 = test: 86Rb ion-flux assay, PC12 positive control cells; assay type: cell-based
IMR32 = test: 86Rb ion-flux assay, IMR32 positive control cells; assay type: cell-based, human
[1] = target: T1, human neuronal nicotinic AChR α3 subunit (Homo sapiens, UniProt P32297); test: Two-electrode voltage clamp of Xenopus oocytes injected with α3 transcript alone; assay type: cell-based
T1 construct: expressed in transfected cells; host or cells: Xenopus oocytes injected with in vitro transcript

[2] = target: T2, human neuronal nicotinic AChR β4 subunit (Homo sapiens, UniProt P30926); test: Two-electrode voltage clamp of Xenopus oocytes injected with β4 transcript alone; assay type: cell-based
T2 construct: expressed in transfected cells; host or cells: Xenopus oocytes injected with in vitro transcript (KEβ4.6/pGEM or pCMV-KEβ4)

[3] = target: T3, human neuronal nicotinic AChR α3 and β4 subunits (Homo sapiens, UniProt P30926+P32297); test: Two-electrode voltage clamp of Xenopus oocytes injected with α3 and β4 transcripts; assay type: cell-based
T3 construct: expressed in transfected cells; host or cells: Xenopus oocytes injected with in vitro transcripts

[4] = target: human neuronal nicotinic AChR α7 subunit (Homo sapiens, UniProt P36544); assay type: cell-based
[5] = target: human neuronal nicotinic AChR α3 and β2 subunits (Homo sapiens, UniProt P17787+P32297); assay type: cell-based
[6] = target: T3, human neuronal nicotinic AChR α3 and β4 subunits; assay type: cell-based
human α3β2α5 nAChR = human α3β2α5 nAChR (Homo sapiens, UniProt P17787+P30532+P32297, D398N); assay type: cell-based
human α7 nAChR [7] = target: T4, human α7 nAChR (Homo sapiens, UniProt P36544); assay type: cell-based
human α7 nAChR [8] = target: T4, human α7 nAChR; assay type: binding
[9] = Rattus norvegicus, PC-12, PC12, agonists and antagonists, read-out: EC50
[10] = Homo sapiens, IMR-32, IMR32, agonists and antagonists, read-out: EC50

Sequence of human neuronal nicotinic AChR α3 and β2 subunits (P17787 26-502, one chain of several): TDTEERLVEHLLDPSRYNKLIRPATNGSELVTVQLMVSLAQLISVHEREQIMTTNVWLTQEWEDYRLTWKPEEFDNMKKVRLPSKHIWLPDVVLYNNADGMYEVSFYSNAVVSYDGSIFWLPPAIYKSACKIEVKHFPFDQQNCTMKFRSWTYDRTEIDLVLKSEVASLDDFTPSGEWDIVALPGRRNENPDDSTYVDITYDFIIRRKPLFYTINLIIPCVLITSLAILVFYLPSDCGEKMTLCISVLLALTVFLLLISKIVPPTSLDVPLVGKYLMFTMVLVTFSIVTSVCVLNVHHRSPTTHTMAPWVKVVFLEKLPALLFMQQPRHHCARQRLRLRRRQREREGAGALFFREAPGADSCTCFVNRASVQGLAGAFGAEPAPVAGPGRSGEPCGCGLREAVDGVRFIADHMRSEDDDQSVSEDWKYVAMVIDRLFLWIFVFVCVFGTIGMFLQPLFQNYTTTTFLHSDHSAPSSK
T4 sequence (P36544 23-502): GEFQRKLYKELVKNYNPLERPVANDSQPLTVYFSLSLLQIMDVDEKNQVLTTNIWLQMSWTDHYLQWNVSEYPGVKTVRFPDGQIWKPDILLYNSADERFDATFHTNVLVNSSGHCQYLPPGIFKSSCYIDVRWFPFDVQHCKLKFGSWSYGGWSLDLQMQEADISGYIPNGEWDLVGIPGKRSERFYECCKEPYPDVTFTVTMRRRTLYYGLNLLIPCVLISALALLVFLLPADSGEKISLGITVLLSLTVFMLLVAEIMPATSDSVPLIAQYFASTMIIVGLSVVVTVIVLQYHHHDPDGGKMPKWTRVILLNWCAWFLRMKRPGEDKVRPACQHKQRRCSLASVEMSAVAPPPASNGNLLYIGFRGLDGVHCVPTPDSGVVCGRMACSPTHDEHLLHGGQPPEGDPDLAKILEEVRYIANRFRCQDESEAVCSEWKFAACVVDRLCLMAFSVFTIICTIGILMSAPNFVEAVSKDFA
T2 sequence (P30926 22-498): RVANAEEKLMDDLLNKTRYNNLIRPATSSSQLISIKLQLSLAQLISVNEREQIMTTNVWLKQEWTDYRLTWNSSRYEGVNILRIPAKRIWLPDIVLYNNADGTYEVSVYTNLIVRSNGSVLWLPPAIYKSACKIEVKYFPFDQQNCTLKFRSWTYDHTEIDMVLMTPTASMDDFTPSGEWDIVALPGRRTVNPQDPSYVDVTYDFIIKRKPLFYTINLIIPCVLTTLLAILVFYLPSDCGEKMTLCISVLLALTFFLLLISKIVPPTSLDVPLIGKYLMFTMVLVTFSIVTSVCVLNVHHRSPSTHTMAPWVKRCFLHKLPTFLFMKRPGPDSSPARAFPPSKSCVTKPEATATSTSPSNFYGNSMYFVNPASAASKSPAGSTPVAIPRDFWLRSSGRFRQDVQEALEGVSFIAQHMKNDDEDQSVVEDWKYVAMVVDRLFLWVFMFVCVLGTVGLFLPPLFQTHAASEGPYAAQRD
Sequence of human α3β2α5 nAChR (P32297 32-505): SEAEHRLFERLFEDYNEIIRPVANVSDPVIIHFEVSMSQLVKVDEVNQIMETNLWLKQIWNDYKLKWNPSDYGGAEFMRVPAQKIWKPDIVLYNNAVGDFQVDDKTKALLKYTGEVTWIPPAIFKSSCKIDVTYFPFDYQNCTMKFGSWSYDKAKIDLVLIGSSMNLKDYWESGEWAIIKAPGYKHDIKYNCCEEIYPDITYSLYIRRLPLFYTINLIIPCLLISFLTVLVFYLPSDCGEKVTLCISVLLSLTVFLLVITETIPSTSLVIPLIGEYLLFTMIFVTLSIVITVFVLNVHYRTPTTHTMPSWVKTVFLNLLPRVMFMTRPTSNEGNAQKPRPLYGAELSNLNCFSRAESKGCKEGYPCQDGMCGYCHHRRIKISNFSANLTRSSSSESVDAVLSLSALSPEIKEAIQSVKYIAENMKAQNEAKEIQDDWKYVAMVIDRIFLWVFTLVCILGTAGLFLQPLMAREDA
Sequence of human α3β2α5 nAChR (P17787 26-502): as the sequence (P17787 26-502, one chain of several) above
Sequence of human neuronal nicotinic AChR α7 subunit (P36544 23-502): as the sequence (P36544 23-502) above

Molecule: C[N+](C)(C)CCOC(N)=O.[Cl-] [CCh, carbamylcholine]
- Maximum response (PC12): 3.3 X^b
- EC50 (PC12; read-out: EC50): 35 µM
- Maximum response (IMR32): 7.6 X^c
- EC50 (IMR32; read-out: EC50): 230 µM

Molecule: CN1[C@@H]2CC[C@H]1C[C@@H](OC(=O)C(CO)c1ccccc1)C2 (stereo partly shown) [atropine]
- EC50 (IMR32; Homo sapiens, IMR-32): 43 µM

Molecule: O=c1cccc2n1C[C@@H]1CNC[C@H]2C1 [cytisine]
- response of oocytes to application of agonist [1]: did not respond
- response of oocytes to application of agonist [2]: did not respond
- Number of oocytes responding [3]: 3 of 4 and 5 of 5 and 6 of 6
- inward currents in response to agonist [3]: detectable inward currents
- relative potency of the agonists [3]: cytisine>ACh>nicotine
- Maximum response (PC12): 3.6 X^d
- EC50 (PC12; Rattus norvegicus, PC-12): 57 µM
- Maximum response (IMR32): 10 X^e
- EC50 (IMR32; Homo sapiens, IMR-32): 14 µM

Molecule: COc1cc2c3cc1Oc1cc(ccc1O)C[C@@H]1c4c(cc(OC)c(O)c4Oc4ccc(cc4)C[C@@H]3N(C)CC2)CC[N+]1(C)C [d-tubocurarine]
- block of the responses to ACh and nicotine [3]: reproducibly blocked
- blockage of the response to ACh [3]: complete blockage
- reversibility of the inhibition [3]: appeared to be reversible
- block of the response to ACh [4]: blocked
- block of the current response to ACh [5]: blocked
- nicotine-stimulated increase in fluorescence in presence of antagonist [6]: not observed
- nicotine-stimulated increase in fluorescence in presence of antagonist (human α3β2α5 nAChR): not observed
- EC50 (PC12; read-out: EC50): 0.81 µM
- EC50 (IMR32; read-out: EC50): 2.5 µM

Molecule: Clc1ccc(C2CC3CCC2N3)cn1 (stereo not shown) [epibatidine]
- response of individual cells (human α7 nAChR [7]): homogenous manner

Molecule: C[N+](C)(C)CCCCCC[N+](C)(C)C [hexamethonium]
- EC50 (IMR32; Homo sapiens, IMR-32): 22 µM

Molecule: CNC1(C)C2CCC(C2)C1(C)C (stereo not shown) [mecamylamine]
- block of the responses to ACh, nicotine and cytisine [3]: at least partially blocked
- EC50 (PC12; [9]): 0.42 µM
- EC50 (IMR32; [10]): 0.11 µM

Molecule: CN1CCCC1c1cccnc1 (stereo not shown) [nicotine]
- Number of oocytes responding [1]: 0 of 8
- response of oocytes to application of agonist [1]: did not respond
- Number of oocytes responding [2]: 0 of 9
- response of oocytes to application of agonist [2]: did not respond
- Number of oocytes responding [3]: 4 of 5 and 3 of 4 and 5 of 5 and 6 of 6
- inward currents in response to agonist [3]: detectable inward currents
- Number of oocytes responding [5]: 2 of 9 and 0 of 9
- fluorescence (intracellular calcium) after addition of agonist [6]: increased dramatically
- fluorescence (intracellular calcium) after addition of agonist (human α3β2α5 nAChR): increased dramatically
- Maximum response (PC12; PC12, at 200 μM nicotine, 300 μM CCh, 1 mM cytisine (footnotes)): 2.1 X^a
- EC50 (PC12; [9]): 52 µM
- EC50 (IMR32; [10]): 18 µM
- Maximum response (IMR32; IMR32, at 200 μM nicotine, 3 mM CCh, 100 μM cytisine (footnotes)): 7.7 X^a

Molecule: α-bungarotoxin
- [3H]-MLA binding displaced (human α7 nAChR [8]): approximately 65%
- IC50 (human α7 nAChR [8]; read-out: IC50, displacement of [3H]-MLA binding): 0.003 µM
